The record followed here is US5589497A, “Phenylimidazolidines” (Uclaf; Roussel, priority 1992, dated 1996).

In the experiment the target is T1, androgenic receptors (rat prostate cytosol) (Rattus norvegicus, UniProt P15207).
T1 construct: from tissue; host or cells: prostate cytosol (209,000 g supernatant) of castrated male Sprague Dawley EOPS rats
T1 sequence (P15207 1-902): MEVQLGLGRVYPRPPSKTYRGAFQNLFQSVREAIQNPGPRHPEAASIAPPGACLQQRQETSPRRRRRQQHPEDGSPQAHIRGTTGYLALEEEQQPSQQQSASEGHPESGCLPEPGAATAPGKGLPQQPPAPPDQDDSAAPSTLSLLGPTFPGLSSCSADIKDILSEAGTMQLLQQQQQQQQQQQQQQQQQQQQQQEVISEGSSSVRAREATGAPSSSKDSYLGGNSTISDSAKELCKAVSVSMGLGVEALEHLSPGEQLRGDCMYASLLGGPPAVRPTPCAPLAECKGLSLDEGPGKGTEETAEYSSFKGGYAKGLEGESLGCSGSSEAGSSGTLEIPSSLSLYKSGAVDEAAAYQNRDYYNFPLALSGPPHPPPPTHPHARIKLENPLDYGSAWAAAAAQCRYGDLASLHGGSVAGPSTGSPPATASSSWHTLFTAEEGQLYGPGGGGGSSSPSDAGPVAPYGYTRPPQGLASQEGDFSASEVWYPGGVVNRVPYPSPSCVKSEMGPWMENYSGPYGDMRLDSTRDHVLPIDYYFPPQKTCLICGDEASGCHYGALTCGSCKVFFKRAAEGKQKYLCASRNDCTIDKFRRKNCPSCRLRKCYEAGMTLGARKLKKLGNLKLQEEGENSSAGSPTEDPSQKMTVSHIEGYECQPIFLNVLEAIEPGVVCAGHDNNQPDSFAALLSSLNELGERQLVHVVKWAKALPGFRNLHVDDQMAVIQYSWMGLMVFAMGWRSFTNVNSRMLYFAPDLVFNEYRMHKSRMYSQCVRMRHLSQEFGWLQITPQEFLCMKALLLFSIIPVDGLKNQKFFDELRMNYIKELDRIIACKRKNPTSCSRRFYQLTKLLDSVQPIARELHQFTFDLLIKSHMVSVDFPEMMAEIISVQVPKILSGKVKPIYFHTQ
Briefly: Study of androgenic receptors: relative binding affinity (RBA) versus tritiated testosterone in prostate cytosol of castrated rats. Conditions: 24 H incubation; testosterone=100; RBA=100(CH)/(CX). Also on record: species or system male rats of the Sprague Dawley EOPS strain. The procedure: Male rats of the Sprague Dawley EOPS strain weighing 180 to 200 g, castrated 24 hours previously, were killed and the prostate was removed, weighed and homogenized at 0° C. with a potter glass in a buffered solution (Tris 10 mM, saccharose 0.25M, PMSF (phenyl methane sulfonyl fluoride) 0.1 mM, sodium molybdate 20 mM, HCl pH 7.4 into which was added extemporaneously […] of DTT (DL dithiothreitol) at a rate of 1 g of tissue per 8 ml of buffer solution. The homogenate was then ultracentrifuged at 0° C. for 30 minutes at 209,000 g and the aliquots of supernatant (=cytosol) were incubated for 30 minutes and 24 hours with a concentration (T) of tritiated testosterone and in the presence of increasing concentrations (0 to 2500×10^-9 M) of cold testosterone or the test products. The concentration of bound tritiated testosterone (B) was then measured for each incubate by adsorption method of carbon-dextran. The relative affinity of bonding (RBA) was calculated.
The following two curves were graphed: the percentage of the bound tritiated hormone B/T as a logarithmic function of the concentration of the cold hormone and B/T as a logarithmic function of the concentration of the tested cold product. The line of the equation I50 =(B/Tmax+B/Tmin)/2 was determined.
B/T max=% of the bound tritiated hormone for an incubation of this tritiated hormone at concentration (T). […]

Consider `CCC1(CC)C(=O)N(c2ccc(C#N)c(C(F)(F)F)c2)C(=S)N1C` [Example 5, 4-(4,4-diethyl-3-methyl-5-oxo-2-thioxo-1-imidazolidinyl)-2-trifluoromethyl-benzonitrile], for which the “relative affinity of bonding (RBA)” value came to 8. Regarding `CN1C(=S)N(c2ccc(C#N)c(C(F)(F)F)c2)C(=O)C12CCCC2` [Example 3, 4-(1-methyl-4-oxo-2-thioxo-1,3-diazaspiro(4,4)nonan-3-yl)-2-trifluoromethyl-benzonitrile], the “relative affinity of bonding (RBA)” value turned out to be 27.
